Columns and labels:
[1] = test system: C57BL/6JL Lep ob/Lep ob mice; experiment: Weight loss effects in obese mice (ob/ob): body weight; format: in vivo; conditions: 100 mg/kg for 26 days
Text: (§1) 10-week-old C57BL/6JL Lep ob/Lep ob male mice having obesity characteristics and predisposition were purchased from Daehan Biolink Co., Ltd. (Chungchongbuk-do, Korea). Animals were raised in a breeding room maintained at a temperature of 23 C, 55% humidity, illumination of 300 to 500 lux, a 12-h light/dark (L/D) cycle, and ventilation of 10 to 18 times/hr. Animals were fed ad libitum pellets of Purina Rodent Laboratory Chow 5001 (purchased from Purina Mills Inc., St. Louis, Mo., USA) as a solid feed for experimental animals and tap water as drinking water. Mice were allowed to acclimate to new environment of the breeding room for two weeks and were then administered some pyrano-o-naphthoquinone and furano-o-naphthoquinone derivatives synthesized according to the present invention at doses of 100 mg/kg for 26 days. Observation was made on changes in body weight, blood glucose and dietary intake, with respect to a time course of administration. After administration was complete, Computed Tomography (CT) was performed to confirm changes in adipose tissue distribution of animals, changes in fat distribution of tissues in various organs, changes in sizes of adipocytes, and changes in glucose, lipid and enzyme levels in blood and liver.

Sprague-Dawley rats = experiment: Acute toxicity test, peritoneal administration; format: in vivo; conditions: peritoneal, 50, 100 and 200 mg/kg, observed for 2 weeks
AMP kinase = experiment: Phosphorylation of AMPK by β-lapachone in HepG2 cells; format: cell-based, Human; conditions: 10 μM, 30 min to 6 hr
Protocol: This example was carried out to confirm whether β-lapachone (Compound 1) has effects on phosphorylation of AMPK and ACC, which are intracellular energy-regulating proteins. In order to examine phosphorylation of AMP kinase and ACC (acetyl-CoA carboxylase) by β-lapachone, HepG2 cells (Human hepatocellular liver carcinoma cell line) were seeded onto a 6-well plate at a density of 1×10^5 cells per well, and cultured in a RPMI+10% FBS medium. After growing the cells for 24 hours, the culture medium was replaced with a serum-free RPMI medium, and cells were treated with β-lapachone (10 μM) for 30 min, 1 hr, 2 hr, 4 hr and 6 hr, respectively, in combination with a control (DMSO). Anti-ACC and Anti-pS79-ACC were used in order to observe phosphorylated ACC, whereas Anti-AMPK and Anti-pT172-AMPK were used in order to observe phosphorylated AMP kinase, respectively.

[2] = test system: mRNAs of PGC1α, NRF1, mtTFA, COX 4 and 7; experiment: Gene expression of proteins involved in mitochondrial biogenesis in DIO mice; format: in vivo, C57BL/6 mice; conditions: 50 mg/kg daily oral, liver and gonadal adipose tissues, vs control group
Protocol: β-lapachone was administered daily to diet-induced obesity (DIO) mice at a dose of 50 mg/kg via an oral route, and levels of mRNAs of peroxisome proliferator-activated receptor coactivator alpha 1 (PGC1α) (23,24), nuclear respiratory factor 1 (NRF1) (25-27), mitochondrial transcription factor (mtTFA) (25-27), and cytochrome c oxidase (COX) 4 and 7 (28,29) in the liver and gonadal adipose tissues were confirmed by real-time quantitative PCR. Proteins shown in FIG. 10 are representative enzymes responsible for regulation of biogenesis of mitochondria which plays a critical role in biosynthesis of energy in cells, and are also known to be involved in regulation of various physiological events.

[3] = test system: C57BL/6JL Lep ob/Lep ob mice; experiment: Blood lipid, glucose and enzyme levels in obese mice (ob/ob); format: in vivo; design: unit not given here; conditions: 100 mg/kg for 26 days
Text: as §1

UCP 1 & 2 genes = experiment: Expression of transcripts of UCP1 and UCP2 genes in DIO mice; format: in vivo, C57BL/6 mice; conditions: 50 mg/kg daily oral, liver and gonadal adipose tissues
Protocol: β-lapachone was administered daily to diet-induced obesity (DIO) mice at a dose of 50 mg/kg via an oral route, and levels of transcripts of uncoupling protein 1 & 2 (UCP 1 & 2) genes in the liver and gonadal adipose tissues was measured using real-time quantitative PCR. UCP 1 & 2 are enzymes that perform energy expenditure via heat generation, and it is reported that these enzymes function to consume energy without involving production of reactive oxygen species (ROS) and are also closely correlated with the incidence of obesity (38,39).

[4] = test system: leptin-deficient (ob/ob) mice; experiment: Changes in leptin receptor-deficient (ob/ob) mice by administration of β-lapachone; format: in vivo; conditions: 56 days, vs control group
Protocol: (§2) This is because fat degradation is facilitated and therefore sufficient amounts of energy are generated, despite similar dietary intake. […] In order to examine fat accumulation in the liver tissue, animals were laparotomized 56 days after administration of β-lapachone, and H&E staining (FIG. 21C) and EM examination (FIG. 21D) were performed on the liver tissue.

[5] = test system: leptin receptor-deficient (ob/ob) mice; experiment: as above; format: in vivo
Protocol: as §2

AMPK = experiment: Determination of AMPK activation in C2C12 myoblast cells (SAMS peptide, [γ-32P]ATP); format: cell-based; conditions: differentiated C2C12 myoblast cells, 5 μg/ml, compared with control (DMSO 0.5% = 1)
Protocol: Myoblast cells, C2C12, were cultured in DMEM containing 10% bovine calf serum. When a cell density reached a range of about 85% to 90%, the culture medium was replaced with a medium containing 1% bovine calf serum to induce differentiation of cells. The thus-differentiated myoblast cells were treated with samples synthesized in Examples 1 through 29 at a concentration of 5 μg/ml, and compared with a control group. Enzymatic activity of AMPK was determined as follows. Firstly, C2C12 cells were lysed to obtain protein extracts and then ammonium sulfate was added to a final concentration of 30%, thereby precipitating proteins. Protein precipitates were dissolved in a buffer (62.5 mM Hepes, pH 7.2, 62.5 mM NaCl, 62.5 mM NaF, 1.25 mM Na pyrophosphate, 1.25 mM EDTA, 1 mM DTT, 0.1 mM PMSF, and 200 μM AMP). Thereafter, 200 μM SAMS peptide (HMRSAMSGLHLVKRR: the underlined serine residue is a phosphorylation site, as an AMPK phosphorylation site of acetyl-CoA carboxylase) and [γ-32P]ATP were added thereto and reactants were reacted for 10 minutes at 30° C. This was followed by spotting of the resulting reaction solution on p81 phosphocellulose paper. The p81 paper was washed with a 3% phosphoric acid solution and radioactivity thereof was measured. For each reaction condition, reactions involving no SAMS peptide were also conducted and basic values were subtracted from the thus-observed values.

CC1(C)CCC2=C(O1)c1ccccc1C(=O)C2=O [Compound 1, β-Lapachone]
Final BW [1]: 46.5 g
change in vivo at 100 mg/kg ([1]; Mus musculus, 624 h, read-out: Increase in BW): -16.8%
mortality (Sprague-Dawley rats): none of the animals died
phosphorylation of AMP kinase (Anti-pT172-AMPK), onset (AMP kinase): could be observed from the initial time (30 min)
phosphorylation of AMP kinase, duration of effect (AMP kinase): lasted up to 6 hours
COX 4 mRNA level [2]: increased levels of mRNAs
COX 7 mRNA level [2]: increased levels of mRNAs
NRF1 mRNA level [2]: increased levels of mRNAs
PGC1α mRNA level [2]: increased levels of mRNAs
mtTFA mRNA level [2]: increased levels of mRNAs
Cholesterol [3]: 121
GOT [3]: 42
GPT [3]: 39
Glucose [3]: 120
Triglyceride [3]: 143
UCP1 mRNA level (UCP 1 & 2 genes): significant increases in mRNA levels
UCP2 mRNA level (UCP 1 & 2 genes): significant increases in mRNA levels
EM examination on liver tissues: fat vacuoles and glycogen stores [4]: remarkably decreased fat vacuoles and glycogen stores
dietary intake/body weight ([5]; 150 or 200 mg/kg daily oral, 56 days): notably decreased around at 10 days of administration
body weight ([5]; 150 or 200 mg/kg daily oral, 56 days, vs control group): continuous weight loss for 56 days
H&E staining on liver tissue: fat vacuoles ([5]; 56 days after administration, vs control group): almost all fat vacuoles have disappeared
EM examination on liver tissues: mitochondrial numbers ([5]; 56 days, vs control group): significant increases in mitochondrial numbers
EM examination on muscle tissue of limbs: mitochondrial shape ([5]; 56 days, vs control group): recovery of normal mitochondrial shape
EM examination on muscle tissue of limbs: numbers of mitochondria ([5]; 56 days, vs control group): significant increases in numbers of mitochondrial
AMPK fold (AMPK): 2.2 fold

From patent US9066922B2, “Pharmaceutical composition for the treatment or prevention of diseases involving obesity, diabetes, metabolic syndrome, neuro-degenerative diseases and mitochondria dysfunction diseases” (MD BIOALPHA CO., LTD., priority 2005, dated 2015)
